Laboratory results: US10351915B2 (Berg LLC, priority 2009, dated 2019)

What was measured:
[1] = test system: SCC cells; test: Real-time PCR Heat Shock Protein Array; assay type: cell-based
Excerpt: The control cells were untreated cells.
Heat Shock Arrays were run for SCC cells and the data of regulated genes is summarized below in Table 13.

[2] = LC-MS/MS quantification of Q10, Q10H2 and Q9 in mitochondrial enriched samples; assay type: cell-based
Method: Ten μl of each sample was injected.

[3] = test system: Caspase 3; test: Western blot, Caspase 3 levels; assay type: cell-based, human; conditions: PACA2, 5g glucose, amount 50
Method: The blots were stripped by incubating for 30 minutes with methanol, followed by two 10 minute washes with TBS-T, then 30 minutes of incubation with Stripping buffer at 50 deg C., and followed by two washes with 100 ml or more of TBS-T for 30′ each. The 2 blots were scanned in laser scanner to check for complete stripping. The blots were activated with methanol for 5 seconds, washed with water for 5 minutes, and TBST for 15 minutes. The blots were blocked for 1 hour with 5% blocking reagent in TBS-T at room temperature and then washed 3 times with TBS-T (1×-15′; 2×5′ each) and probed with the antibody for Caspase 3 in 5% BSA (Santacruz Biotechnology # sc7272) at 1:200 dilutions) overnight at 4 deg C. with shaking. After the overnight incubation with primary antibody for Caspase 3, the membranes were washed 3 times with TBS-T (1×-15′; 2×5′ each) and probed with the secondary antibody (antimouse; 1:10,000 dilution) for 1 h on the orbital tilting shaker at room temperature. […]
The levels of Caspase 3 and actin were determined by probing the blots successively with primary antibodies for Caspase 3 and actin, essentially as described above. […]

[4] = test system: HASMC cells; test: Extracellular acidification rate (ECAR), SeaHorse XF analyzer; assay type: cell-based, human; conditions: hyperglycemic, hypoxic conditions
Excerpt: (SeaHorse Biosciences Inc, North Billerica, Mass.).
In this experiment, the OCR and extracellular acidification rate (ECAR) in normal cells lines were obtained in the presence and absence of CoQ10 to determine baseline values. It was observed that in its native nutrient environment, the basal OCR rates in normal cells lines are different, and are usually a function of the physiological roles of the cells in the body.
In Table 128 the measured baseline ECAR values (mpH/min) in HASMC were higher compared to that of HDFa. Induction of hypoxic conditions caused an increase in ECAR most likely associated with intracellular hypoxia induced acidosis secondary to increased glycolysis.

COC1=C(OC)C(=O)C(C/C=C(\C)CC/C=C(\C)CC/C=C(\C)CC/C=C(\C)CC/C=C(\C)CC/C=C(\C)CC/C=C(\C)CC/C=C(\C)CC/C=C(\C)CCC=C(C)C)=C(C)C1=O [Q10, Coenzyme Q10]
DNAJA1 Regulation ([1]; 100 μM Q10, at 6 hours): Up regulated at 6
DNAJB5 Regulation ([1]; 100 μM Q10, at 6 hours): Down regulated
DNAJB13 Regulation ([1]; 100 μM Q10, at 6 hours): Down regulated
DNAJC4 Regulation ([1]; 100 μM Q10, at 6 hours): Down regulated
DNAJC5B Regulation ([1]; 100 μM Q10, at 6 hours): Down regulated
DNAJC12 Regulation ([1]; 100 μM Q10, at 6 hours): Down regulated
HSPA8 Regulation ([1]; 100 μM Q10, at 6 hours): Up regulated at 6
HSPH1 Regulation ([1]; 100 μM Q10, at 6 hours): Up regulated at 6
CCT6B Regulation ([1]; 100 μM Q10, at 24 hours): Down regulated
increase in Q10 levels in mitochondria ([2]; 100 μM Q10, 19 hours): ~3 fold
increase in Q10 levels in mitochondria ([2]; 100 μM Q10, 48 hour time point): ~6 fold
form of Q10 in mitochondria ([2]; exogenous Q10 added to the media): maintained in the supplied oxidized form
Caspase 3 Normalized Volume (48 h) [3]: 701
ECAR rates [4]: downward trend of ECAR rates
